Results from patent US20260297094A1, “Tetracyclic Compounds as SMARCA2 and/or SMARCA4 Degraders” (Aurigene Oncology Limited, priority 2023, published 2026).

Key:
Format in all cases: cell-based
SMARCA4 = molecular target: T1, SMARCA4 (Homo sapiens, UniProt P51532); assay: SMARCA4 degradation in MV-4-11 cells by Western blot; conditions: MV4-11, at 100 nM, 16 hours, vs DMSO, read-out: Percent degradation SMARCA4
T1 construct: endogenous in cells; host or cells: MV-4-11 (CRL-9591)
Protocol: (§1) Example-P3: Determination of SMARCA2 and SMARCA4 Degradation in MV-4-11 Cells by Western Blot
(§2) MV-4-11 (CRL-9591™) cells were plated in 6 well plates using complete Iscove's Modified Dulbecco's Medium. On the third day, compounds of present invention were added to cells from 10 mM stocks made in DMSO (Sigma Cat no. D2650). Each concentration of compound was tested with DMSO not exceeding final percentage of 0.1 in the cells. Cells were incubated with the compound for 16 hours followed by harvesting with 1×RIPA lysis buffer (Thermo Fischer, catalogue number #89900) containing protease inhibitor cocktail (Sigma catalogue number #P-8340). Equal amount of protein was loaded on SDS PAGE gel for electrophoresis. Western blot was carried out for detection of either SMARCA2 (Cell signalling technologies, catalogue number #11966) or SMARCA4 antibody (Cell signalling technologies, catalogue number #52251). Beta-Tubulin antibody (Cell signalling technologies, catalogue number #86298) was used as loading control. Percentage of SMARCA2 or SMARCA4 degradation was calculated using formula % Degradation=100−(normalized band intensity in treated sample/normalized band intensity in DMSO sample)*100. Here, “ND” refers to Not determined.

SMARCA2 = molecular target: T2, SMARCA2 (Homo sapiens, UniProt P51531); assay: SMARCA2 degradation in MV-4-11 cells by Western blot; conditions: MV4-11, 16 h, at 100 nM, vs DMSO, read-out: Percent degradation SMARCA2
T2 construct: endogenous in cells; host or cells: MV-4-11 (CRL-9591)
Protocol: as §1, §2

SK-MEL-5 cells = assay: Anti proliferative activity in SK-MEL-5 cells by Cell Titer Glo (Promega) assay; conditions: Homo sapiens, retreatment on Day 4, terminated on day 8, CellTiter-Glo
How it was run: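 SK-MEL-5 cells treated with 9-point 3-fold dilution series, re-dosed on day 4, read on day 8 by CellTiter-Glo luminescence. EC50 derived from percent proliferation inhibition versus concentration.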

MV-4-11 cells = assay: Anti proliferative activity in MV-4-11 cells by Cell Titer Glo (Promega) assay; conditions: Homo sapiens, MV4-11, 72 h, 3 days, CellTiter-Glo
How it was run: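 MV-4-11 cells in complete DMEM were exposed to compound for 3 days in triplicate, final DMSO ≤0.3%. Viability was read by CellTiter-Glo ATP luminescence, and % inhibition was taken relative to the DMSO control. EC50 was derived from concentration-response curves.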

T1 sequence (P51532 whole entry): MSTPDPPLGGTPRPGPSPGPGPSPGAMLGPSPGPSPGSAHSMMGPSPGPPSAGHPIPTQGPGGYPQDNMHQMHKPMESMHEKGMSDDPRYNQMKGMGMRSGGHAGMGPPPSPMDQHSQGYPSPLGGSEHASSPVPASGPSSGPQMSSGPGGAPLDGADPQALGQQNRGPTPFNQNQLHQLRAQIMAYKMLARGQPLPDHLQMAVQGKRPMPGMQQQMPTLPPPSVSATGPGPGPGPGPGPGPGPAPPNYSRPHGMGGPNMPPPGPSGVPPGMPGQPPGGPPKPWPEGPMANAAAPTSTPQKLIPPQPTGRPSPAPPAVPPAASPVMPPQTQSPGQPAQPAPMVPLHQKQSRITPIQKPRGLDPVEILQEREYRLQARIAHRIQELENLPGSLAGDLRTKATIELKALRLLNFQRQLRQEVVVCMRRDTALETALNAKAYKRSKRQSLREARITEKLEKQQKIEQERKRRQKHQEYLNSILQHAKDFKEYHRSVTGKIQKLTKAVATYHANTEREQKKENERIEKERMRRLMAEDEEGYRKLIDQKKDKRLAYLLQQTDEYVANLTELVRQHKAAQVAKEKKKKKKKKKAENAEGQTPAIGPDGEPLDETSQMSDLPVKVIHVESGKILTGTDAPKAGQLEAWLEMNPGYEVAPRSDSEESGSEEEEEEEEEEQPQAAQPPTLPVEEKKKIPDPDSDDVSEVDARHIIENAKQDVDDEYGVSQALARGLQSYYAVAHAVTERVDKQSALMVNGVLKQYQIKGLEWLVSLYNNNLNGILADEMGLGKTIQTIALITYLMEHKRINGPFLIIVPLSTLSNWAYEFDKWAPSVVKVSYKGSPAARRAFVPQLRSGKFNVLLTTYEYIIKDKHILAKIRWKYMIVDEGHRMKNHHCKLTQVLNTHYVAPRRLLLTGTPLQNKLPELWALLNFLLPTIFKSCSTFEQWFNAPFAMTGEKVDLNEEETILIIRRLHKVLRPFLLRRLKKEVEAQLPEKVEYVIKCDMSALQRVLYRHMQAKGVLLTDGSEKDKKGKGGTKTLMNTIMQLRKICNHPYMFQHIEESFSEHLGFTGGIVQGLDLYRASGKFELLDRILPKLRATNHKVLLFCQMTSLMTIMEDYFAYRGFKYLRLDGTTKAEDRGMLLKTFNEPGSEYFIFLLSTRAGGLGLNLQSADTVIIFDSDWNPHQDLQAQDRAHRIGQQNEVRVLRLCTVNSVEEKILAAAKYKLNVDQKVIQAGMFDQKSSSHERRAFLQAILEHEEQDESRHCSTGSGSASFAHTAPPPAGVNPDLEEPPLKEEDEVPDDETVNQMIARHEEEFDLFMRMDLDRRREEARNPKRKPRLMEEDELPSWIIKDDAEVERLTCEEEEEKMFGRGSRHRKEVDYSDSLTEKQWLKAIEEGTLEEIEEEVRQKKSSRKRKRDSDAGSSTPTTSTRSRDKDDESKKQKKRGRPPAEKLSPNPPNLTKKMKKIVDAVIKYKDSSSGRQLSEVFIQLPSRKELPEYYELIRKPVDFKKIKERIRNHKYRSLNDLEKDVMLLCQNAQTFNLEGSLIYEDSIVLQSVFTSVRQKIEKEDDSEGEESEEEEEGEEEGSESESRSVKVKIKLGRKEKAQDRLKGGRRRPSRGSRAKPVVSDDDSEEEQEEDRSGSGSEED
T2 sequence (P51531 whole entry): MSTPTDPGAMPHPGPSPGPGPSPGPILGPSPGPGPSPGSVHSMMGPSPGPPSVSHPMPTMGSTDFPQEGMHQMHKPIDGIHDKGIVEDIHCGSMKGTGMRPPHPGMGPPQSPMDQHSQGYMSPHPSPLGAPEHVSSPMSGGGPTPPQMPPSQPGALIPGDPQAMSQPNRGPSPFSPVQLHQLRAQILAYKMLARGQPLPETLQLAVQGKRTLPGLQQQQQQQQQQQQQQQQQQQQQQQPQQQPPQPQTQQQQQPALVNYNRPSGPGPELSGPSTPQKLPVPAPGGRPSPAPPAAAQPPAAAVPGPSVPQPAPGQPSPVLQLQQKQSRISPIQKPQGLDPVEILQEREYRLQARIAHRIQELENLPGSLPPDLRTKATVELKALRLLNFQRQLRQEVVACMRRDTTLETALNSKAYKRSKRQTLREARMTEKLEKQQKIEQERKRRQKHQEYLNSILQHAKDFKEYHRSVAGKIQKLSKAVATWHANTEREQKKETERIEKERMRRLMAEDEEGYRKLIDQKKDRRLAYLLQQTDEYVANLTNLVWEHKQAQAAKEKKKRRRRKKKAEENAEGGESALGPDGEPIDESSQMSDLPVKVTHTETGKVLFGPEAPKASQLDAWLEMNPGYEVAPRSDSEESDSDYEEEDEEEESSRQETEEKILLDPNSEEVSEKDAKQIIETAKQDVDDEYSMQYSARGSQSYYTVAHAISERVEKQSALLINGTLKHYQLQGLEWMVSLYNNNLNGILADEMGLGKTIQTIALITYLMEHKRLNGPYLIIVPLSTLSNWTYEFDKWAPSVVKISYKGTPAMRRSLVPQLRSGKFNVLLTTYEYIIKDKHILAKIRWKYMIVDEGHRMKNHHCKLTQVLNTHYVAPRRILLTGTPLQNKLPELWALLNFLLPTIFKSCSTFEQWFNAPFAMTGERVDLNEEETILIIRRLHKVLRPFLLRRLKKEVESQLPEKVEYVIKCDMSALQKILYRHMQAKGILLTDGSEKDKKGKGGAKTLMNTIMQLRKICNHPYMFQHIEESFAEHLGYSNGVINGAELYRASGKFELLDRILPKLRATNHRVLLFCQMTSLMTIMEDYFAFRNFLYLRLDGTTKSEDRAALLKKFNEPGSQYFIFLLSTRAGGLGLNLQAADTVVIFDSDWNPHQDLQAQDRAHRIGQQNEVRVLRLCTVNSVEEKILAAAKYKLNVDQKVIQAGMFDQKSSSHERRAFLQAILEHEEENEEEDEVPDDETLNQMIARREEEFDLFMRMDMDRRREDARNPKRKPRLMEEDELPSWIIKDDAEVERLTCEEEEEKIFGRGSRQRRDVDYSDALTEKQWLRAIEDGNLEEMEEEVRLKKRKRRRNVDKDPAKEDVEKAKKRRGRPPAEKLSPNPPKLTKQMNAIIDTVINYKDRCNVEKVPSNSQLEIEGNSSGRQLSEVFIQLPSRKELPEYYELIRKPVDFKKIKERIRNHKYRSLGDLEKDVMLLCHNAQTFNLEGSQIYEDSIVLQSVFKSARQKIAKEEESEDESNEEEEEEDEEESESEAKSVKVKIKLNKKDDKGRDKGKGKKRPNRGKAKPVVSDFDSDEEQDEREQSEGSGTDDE

Q: `Cn1c2cc(N3CCC(N4CCC(c5ccc(NC6CCC(=O)NC6=O)cc5F)CC4)CC3)ccc2n2c3cccc(Cl)c3c(=O)nc12` (stereo not shown) [Compound 36, 3-((4-(1′-(4-chloro-7-methyl-5-oxo-5,7-dihydrobenzo[4,5]imidazo[1,2-a]quinazolin-9-yl)-[1,4′-bipiperidin]-4-yl)-3-fluorophenyl)amino)piperidine-2,6-dione] was tested. Which inhibition at 0.1 µM (SMARCA4) did it give?
A: 97%

Q: What about the inhibition at 0.1 µM (SMARCA2) of the same molecule?
A: 99%

Q: And the EC50 (SK-MEL-5 cells)?
A: < 10 nM

Q: What about the EC50 (MV-4-11 cells) of the same molecule?
A: > 100 nM
